From ChEMBL document CHEMBL3044593, “Design, synthesis and anticonvulsant evaluation of novel 8-substituted-4(3H)-quinazolines” (Med Chem Res, 2012)
Active and inactive are the calls of the source. The calls are words filed in the database; no cut-off is given here.

Columns and labels:
Mus musculus [1] = assay: Anticonvulsant activity in Mus musculus (mouse) assessed as protection against picrotoxin-induced seizures at 0.5 mmol/kg, ip administered 30 min prior to seizure induction measured for 60 min relative to control; type: functional, organism-based
Mus musculus [2] = assay: Anticonvulsant activity in Mus musculus (mouse) assessed as protection against strychnine-induced seizures at 0.5 mmol/kg, ip administered 30 min prior to seizure induction measured for 60 min relative to control; type: functional, organism-based
Mus musculus [3] = assay: Anticonvulsant activity in Mus musculus (mouse) assessed as protection against maximal electroshock-induced seizures at 0.5 mmol/kg, ip administered 30 min prior to seizure induction measured for 60 min relative to control; type: functional
Mus musculus [4] = assay: Anticonvulsant activity in Mus musculus (mouse) assessed as protection against pentylenetetrazol-induced seizures at 0.5 mmol/kg, ip administered 30 min prior to seizure induction measured for 60 min relative to control; type: functional
[5] = Therapeutic index, ratio of LD50 for ip dosed Mus musculus (mouse) to ED50 for protection against pentylenetetrazol-induced seizures in ip dosed mouse; type: organism-based; details: in vivo, read-out: Ratio LD50/ED50
[6] = Acute neurotoxicity in ip dosed Mus musculus (mouse) assessed as motor impairment administered 30 min prior to testing measured for 30 secs by chimney test; type: toxicity, organism-based; details: in vivo
Mus musculus [7] = assay: Anticonvulsant activity in ip dosed Mus musculus (mouse) assessed as protection against pentylenetetrazol-induced seizures administered 30 min prior to seizure induction measured for 60 min; type: functional
Mus musculus [8] = assay: Anticonvulsant activity in Mus musculus (mouse) assessed as protection against maximal electroshock-induced seizures at 1.4 mmol/kg, ip administered 30 min prior to seizure induction measured for 60 min relative to control; type: functional
Mus musculus [9] = assay: Anticonvulsant activity in Mus musculus (mouse) assessed as protection against pentylenetetrazol-induced seizures at 1.4 mmol/kg, ip administered 30 min prior to seizure induction measured for 60 min relative to control; type: functional
[10] = Toxicity in ip dosed Mus musculus (mouse) assessed as mortality; type: organism-based; details: in vivo
Mus musculus [11] = assay: Protective index, ratio of TD50 for ip dosed Mus musculus (mouse) to ED50 for protection against pentylenetetrazol-induced seizures in ip dosed mouse; type: functional
Mus musculus [12] = assay: Anticonvulsant activity in Mus musculus (mouse) assessed as protection against maximal electroshock-induced seizures at 1.5 mmol/kg, ip administered 30 min prior to seizure induction measured for 60 min relative to control; type: functional
Mus musculus [13] = assay: Anticonvulsant activity in Mus musculus (mouse) assessed as protection against pentylenetetrazol-induced seizures at 1.5 mmol/kg, ip administered 30 min prior to seizure induction measured for 60 min relative to control; type: functional

Cc1ccccc1-n1c(C)nc2c(OCC(=O)NNC(=O)NN)cccc2c1=O
Activity (Mus musculus [1]): inactive
Activity (Mus musculus [2]): inactive
Activity (Mus musculus [3]): 0%
Activity (Mus musculus [4]): 50%

Cc1ccccc1-n1c(C)nc2ccccc2c1=O [METHAQUALONE]
selectivity ratio [5]: 1.4
TD50 at 0.5 min [6]: 1600 µmol/kg
ED50 (Mus musculus [7]): 1400 µmol/kg
Activity (Mus musculus [8]): 100%
Activity (Mus musculus [9]): 100%

Cc1ccccc1-n1c(C)nc2c(OCC(=O)NCCO)cccc2c1=O
Activity (Mus musculus [1]): inactive
Activity (Mus musculus [2]): inactive
Activity (Mus musculus [3]): 0%
Activity (Mus musculus [4]): 50%

COc1ccccc1/C=N\NC(=O)COc1cccc2c(=O)n(-c3ccccc3C)c(C)nc12
Activity (Mus musculus [1]): inactive
Activity (Mus musculus [2]): inactive
Activity (Mus musculus [3]): 0%
Activity (Mus musculus [4]): 33%

CCOC(=O)NNC(=O)COc1cccc2c(=O)n(-c3ccccc3C)c(C)nc12
selectivity ratio [5]: 1.51
LD50 [10]: 1020 µmol/kg
TD50 at 0.5 min [6]: 600 µmol/kg
ED50 (Mus musculus [7]): 390 µmol/kg
Activity (Mus musculus [1]): inactive
Activity (Mus musculus [2]): inactive
Activity (Mus musculus [3]): 100%
Activity (Mus musculus [4]): 100%

Cc1ccccc1-n1c(C)nc2c(OCC(=O)NNC(=S)NN)cccc2c1=O
Activity (Mus musculus [1]): inactive
Activity (Mus musculus [2]): inactive
Activity (Mus musculus [3]): 33%
Activity (Mus musculus [4]): 66%

Cc1ccccc1-n1c(C)nc2c(OCC(=O)NN)cccc2c1=O
selectivity ratio [5]: 10.2
Ratio TD50/ED50 (Mus musculus [11]): 2.7
LD50 [10]: 2960 µmol/kg
TD50 at 0.5 min [6]: 790 µmol/kg
ED50 (Mus musculus [7]): 290 µmol/kg
Activity (Mus musculus [1]): inactive
Activity (Mus musculus [2]): inactive
Activity (Mus musculus [3]): 50%
Activity (Mus musculus [4]): 100%

CCCC(CCC)C(=O)[O-].[Na+] [VALPROATE SODIUM]
LD50 [10]: 11900 µmol/kg
TD50 at 0.5 min [6]: 9600 µmol/kg
ED50 (Mus musculus [7]): 4800 µmol/kg
Activity (Mus musculus [12]): 100%
Activity (Mus musculus [13]): 100%

CSC(=S)NNC(=O)COc1cccc2c(=O)n(-c3ccccc3C)c(C)nc12
selectivity ratio [5]: 3.34
LD50 [10]: 1170 µmol/kg
TD50 at 0.5 min [6]: 670 µmol/kg
ED50 (Mus musculus [7]): 350 µmol/kg
Activity (Mus musculus [1]): inactive
Activity (Mus musculus [2]): inactive
Activity (Mus musculus [3]): 100%
Activity (Mus musculus [4]): 100%

Cc1ccccc1-n1c(C)nc2c(OCC(=O)N/N=C\c3ccccc3F)cccc2c1=O
Activity (Mus musculus [1]): inactive
Activity (Mus musculus [2]): inactive
Activity (Mus musculus [3]): 50%
Activity (Mus musculus [4]): 66%

Cc1ccccc1-n1c(C)nc2c(OCC(=O)NNC(N)=O)cccc2c1=O
Activity (Mus musculus [1]): inactive
Activity (Mus musculus [2]): inactive
Activity (Mus musculus [3]): 0%
Activity (Mus musculus [4]): 50%

Cc1ccccc1-n1c(C)nc2c(OCC(=O)N/N=C\c3ccccc3)cccc2c1=O
Activity (Mus musculus [1]): inactive
Activity (Mus musculus [2]): inactive
Activity (Mus musculus [3]): 0%
Activity (Mus musculus [4]): 50%
